Measured values published in ChEMBL document CHEMBL3885881, “DrugMatrix”.

Species on record: Rattus norvegicus
Experiment: DrugMatrix - Regimen: Daily Repeat
Type: toxicity, organism-based, Sprague-Dawley
Set-up: regimen Daily Repeat, gender Male, age 6-8 weeks
Conditions: in vivo, po, route oral GAVAGE, vehicle 100 % WATER; for ABSOLUTE BASOPHIL / ABSOLUTE EOSINOPHIL / ABSOLUTE LYMPHOCYTE / ABSOLUTE MONOCYTE / ABSOLUTE SEGMENTED NEUTROPHIL / BASOPHIL / EOSINOPHIL / ERYTHROCYTE COUNT / HEMATOCRIT / HEMOGLOBIN / LEUKOCYTE COUNT / LYMPHOCYTE / MEAN CORPUSCULAR HEMOGLOBIN / MEAN CORPUSCULAR HEMOGLOBIN CONCENTRATION / MEAN CORPUSCULAR VOLUME / MONOCYTE / NEUTROPHIL / NUCLEATED RED BLOOD CELLS / PLATELET COUNT: tissue Blood; for ALANINE AMINOTRANSFERASE / ALBUMIN / ALKALINE PHOSPHATASE / ASPARTATE AMINOTRANSFERASE / BLOOD UREA NITROGEN / CARBON DIOXIDE / CHLORIDE / CHOLESTEROL / CREATINE PHOSPHOKINASE / CREATININE / GLUCOSE / LACTATE DEHYDROGENASE / LIPASE / PHOSPHORUS / POTASSIUM / SODIUM / TOTAL BILIRUBIN / TOTAL PROTEIN / URIC ACID: tissue Plasma
[1] = 0 mg/kg, 72 h, dose level Control, time 3 day
[2] = 0 mg/kg, 120 h, dose level Control, time 5 day
[3] = 28 mg/kg, 72 h, dose level Low, time 3 day

Cn1cc[nH]c1=S [METHIMAZOLE]
ABSOLUTE BASOPHIL [1]: 0 CELLS/uL
ABSOLUTE EOSINOPHIL [1]: 0 CELLS/uL
ABSOLUTE LYMPHOCYTE [1]: 8482.5 CELLS/uL
ABSOLUTE MONOCYTE [1]: 63.83 CELLS/uL
ABSOLUTE SEGMENTED NEUTROPHIL [1]: 887 CELLS/uL
BASOPHIL [1]: 0%
EOSINOPHIL [1]: 0%
ERYTHROCYTE COUNT [1]: 5.49 x10E6/uL
HEMATOCRIT [1]: 34.5%
HEMOGLOBIN [1]: 13.33 G/DL
LEUKOCYTE COUNT [1]: 9.43 x10E3/uL
LYMPHOCYTE [1]: 90.17%
MEAN CORPUSCULAR HEMOGLOBIN [1]: 24.3 pg
MEAN CORPUSCULAR HEMOGLOBIN CONCENTRATION [1]: 38.63 G/DL
MEAN CORPUSCULAR VOLUME [1]: 62.88 fL
MONOCYTE [1]: 0.67%
NEUTROPHIL [1]: 9.17%
NUCLEATED RED BLOOD CELLS [1]: 0.67 /100WBC
PLATELET COUNT [1]: 1022.83 x10E3/uL
ALANINE AMINOTRANSFERASE [1]: 50.5 u/L
ALBUMIN [1]: 4.08 G/DL
ALKALINE PHOSPHATASE [1]: 368.33 u/L
ASPARTATE AMINOTRANSFERASE [1]: 87.5 u/L
BLOOD UREA NITROGEN [1]: 12.83 mg/dL
CARBON DIOXIDE [1]: 32.83 mmol/L
CHLORIDE [1]: 99.67 MEQ/L
CHOLESTEROL [1]: 79.67 mg/dL
CREATINE PHOSPHOKINASE [1]: 585 u/L
CREATININE [1]: 0.22 mg/dL
GLUCOSE [1]: 135.67 mg/dL
LACTATE DEHYDROGENASE [1]: 171 u/L
LIPASE [1]: 9.5 u/L
PHOSPHORUS [1]: 11.18 mg/dL
POTASSIUM [1]: 6.25 MEQ/L
SODIUM [1]: 144.87 MEQ/L
TOTAL BILIRUBIN [1]: 0.2 mg/dL
TOTAL PROTEIN [1]: 6.08 G/DL
URIC ACID [1]: 0.65 mg/dL
ABSOLUTE BASOPHIL [2]: 0 CELLS/uL
ABSOLUTE EOSINOPHIL [2]: 14.5 CELLS/uL
ABSOLUTE LYMPHOCYTE [2]: 7596.17 CELLS/uL
ABSOLUTE MONOCYTE [2]: 69.67 CELLS/uL
ABSOLUTE SEGMENTED NEUTROPHIL [2]: 503 CELLS/uL
BASOPHIL [2]: 0%
EOSINOPHIL [2]: 0.17%
ERYTHROCYTE COUNT [2]: 5.49 x10E6/uL
HEMATOCRIT [2]: 34.72%
HEMOGLOBIN [2]: 13.47 G/DL
LEUKOCYTE COUNT [2]: 8.18 x10E3/uL
LYMPHOCYTE [2]: 92.17%
MEAN CORPUSCULAR HEMOGLOBIN [2]: 24.57 pg
MEAN CORPUSCULAR HEMOGLOBIN CONCENTRATION [2]: 38.82 G/DL
MEAN CORPUSCULAR VOLUME [2]: 63.3 fL
MONOCYTE [2]: 1%
NEUTROPHIL [2]: 6.67%
NUCLEATED RED BLOOD CELLS [2]: 0 /100WBC
PLATELET COUNT [2]: 1141 x10E3/uL
ALANINE AMINOTRANSFERASE [2]: 48.33 u/L
ALBUMIN [2]: 4.07 G/DL
ALKALINE PHOSPHATASE [2]: 395.67 u/L
ASPARTATE AMINOTRANSFERASE [2]: 85.67 u/L
BLOOD UREA NITROGEN [2]: 15.83 mg/dL
CARBON DIOXIDE [2]: 31.33 mmol/L
CHLORIDE [2]: 100.83 MEQ/L
CHOLESTEROL [2]: 62.33 mg/dL
CREATINE PHOSPHOKINASE [2]: 248.33 u/L
CREATININE [2]: 0.2 mg/dL
GLUCOSE [2]: 135.67 mg/dL
LACTATE DEHYDROGENASE [2]: 141.33 u/L
LIPASE [2]: 9.5 u/L
PHOSPHORUS [2]: 10.73 mg/dL
POTASSIUM [2]: 6.07 MEQ/L
SODIUM [2]: 145.35 MEQ/L
TOTAL BILIRUBIN [2]: 0.22 mg/dL
TOTAL PROTEIN [2]: 6.12 G/DL
URIC ACID [2]: 0.63 mg/dL
ABSOLUTE BASOPHIL [3]: 0 CELLS/uL
ABSOLUTE EOSINOPHIL [3]: 0 CELLS/uL
ABSOLUTE LYMPHOCYTE [3]: 8790 CELLS/uL
ABSOLUTE MONOCYTE [3]: 67.33 CELLS/uL
ABSOLUTE SEGMENTED NEUTROPHIL [3]: 776 CELLS/uL
BASOPHIL [3]: 0%
EOSINOPHIL [3]: 0%
ERYTHROCYTE COUNT [3]: 5.45 x10E6/uL
HEMATOCRIT [3]: 33.93%
HEMOGLOBIN [3]: 13.23 G/DL
LEUKOCYTE COUNT [3]: 9.63 x10E3/uL
LYMPHOCYTE [3]: 91.33%
MEAN CORPUSCULAR HEMOGLOBIN [3]: 24.3 pg
MEAN CORPUSCULAR HEMOGLOBIN CONCENTRATION [3]: 39 G/DL
MEAN CORPUSCULAR VOLUME [3]: 62.37 fL
MONOCYTE [3]: 0.67%
NEUTROPHIL [3]: 8%
NUCLEATED RED BLOOD CELLS [3]: 0.33 /100WBC
PLATELET COUNT [3]: 926 x10E3/uL
ALANINE AMINOTRANSFERASE [3]: 53.33 u/L
ALBUMIN [3]: 4.17 G/DL
ALKALINE PHOSPHATASE [3]: 410.67 u/L
ASPARTATE AMINOTRANSFERASE [3]: 78 u/L
BLOOD UREA NITROGEN [3]: 11.33 mg/dL
CARBON DIOXIDE [3]: 33 mmol/L
CHLORIDE [3]: 98.67 MEQ/L
CHOLESTEROL [3]: 91.33 mg/dL
CREATINE PHOSPHOKINASE [3]: 269.33 u/L
CREATININE [3]: 0.34 mg/dL
GLUCOSE [3]: 123 mg/dL
LACTATE DEHYDROGENASE [3]: 147.67 u/L
LIPASE [3]: 11 u/L
PHOSPHORUS [3]: 10.97 mg/dL
POTASSIUM [3]: 6.8 MEQ/L
SODIUM [3]: 143.6 MEQ/L
TOTAL BILIRUBIN [3]: 0.23 mg/dL
TOTAL PROTEIN [3]: 6.13 G/DL
URIC ACID [3]: 0.8 mg/dL
